Here are results for six compounds from publication PMC6273978, “Synthesis and Pharmacological Evaluation of Novel Pleuromutilin Derivatives with Substituted Benzimidazole Moieties” (Molecules, 2016).

Experiment [1] has as its system Escherichia coli (E. coli). Nature of the experiment: MIC testing, agar dilution method. Conditions: 36.5 °C, 24–48 h. Type of experiment: cell-based. The text has this:
(§1) The synthesized pleuromutilin derivatives 3 and 4a–l, with tiamulin fumarate used a as reference drug, were screened for their in vitro antibacterial activity against Escherichia coli (E. coli), Staphylococcus aureus (S. aureus), Methicillin-resistant Staphylococcus aureus (MRSA), Staphylococcus vitulinus (S. vitulinus), Staphylococcus warneri (S. warneri), and Staphylococcus haemolyticus (S. haemolyticus). The antibacterial activities are reported in Table 1 as the minimum inhibitory concentration (MIC) using the agar dilution method. The MICs of the 13 new pleuromutilin derivatives in vitro against E. coli ranged from 10 to 80 μg/mL; against S. aureus, MRSA, S. vitulinus, S. warneri, and S. haemolyticus ranged from 0.156 to 40 μg/mL, respectively.
(§2) The MIC for the synthesized compounds (3 and 4a–l) and tiamulin fumarate used as a reference drug were determined using the agar dilution method according to the National Committee for Clinical Laboratory Standards (NCCLS). Tested compounds were dissolved in 25%–40% DMSO to a solution with a concentration of 1280 µg/mL, whereas tiamulin fumarate was directly dissolved in 10 mL of distilled water at the same concentration as the tested compounds. All the solutions were then diluted twofold with sterile water to provide 11 dilutions (final concentration is 0.625 µg/mL). A 2 mL volume of the 2-fold serial dilution of each test compound/drug was incorporated into 18 mL of hot Muellere-Hinton agar medium. Inoculums, including five Gram (+), S. aureus, MRSA, S. vitulinus, S. warneri, S. haemolyticus, and one Gram (−), E. coli were prepared from blood slants and adjusted to approximately 10^5–10^6 CFU/mL with sterile saline (0.90% NaCl). A 10 µL amount of bacterial suspension was spotted onto Muellere-Hinton agar plates containing serial dilutions of the compounds/drug. The plates were incubated at 36.5 °C for 24–48 h. The same procedure was repeated in triplicate.

In experiment [2] the test system is Methicillin-resistant Staphylococcus aureus (MRSA). Nature of the experiment: MIC testing, agar dilution method. It is filed as cell-based. Conditions: 36.5 °C, 24–48 h.
Text: as §1, §2

For experiment [3], the system named is Staphylococcus aureus (S. aureus). Nature of the experiment: MIC testing, agar dilution method. It is filed as cell-based. Particulars: 36.5 °C, 24–48 h.
Text: as §1, §2
For orientation: Agar dilution tests growth on a series of plates holding different concentrations.

The subject of experiment [4] is Staphylococcus haemolyticus (S. haemolyticus). Nature of the experiment: MIC testing, agar dilution method. It is filed as cell-based. Conditions: 36.5 °C, 24–48 h.
Text: as §1, §2

For experiment [5], the system named is Staphylococcus vitulinus (S. vitulinus). Nature of the experiment: MIC testing, agar dilution method. Particulars: Mammaliicoccus vitulinus, 36.5 °C, 24–48 h. Type of experiment: cell-based.
Text: as §1, §2

Experiment [6] relates to Staphylococcus warneri (S. warneri). The experiment is described as follows: MIC testing, agar dilution method. Type of experiment: cell-based. Particulars: 36.5 °C, 24–48 h.
Text: as §1, §2

The subject of a further experiment is E. coli. The experiment is described as follows: Oxford cup assay, zone of inhibition. It is filed as cell-based. Particulars: Escherichia coli. Here is the method:
(§3) The Oxford cup assays were carried out to evaluate the antibacterial activities against the above-mentioned six bacterial strains. The zones of inhibition for two concentrations (320 and 160 μg/mL) of the synthetic compounds and tiamulin fumarate were measured. The results of Oxford cup assay correspond with that obtained by agar dilution method (MICs) as a whole.
(§4) The procedure for Oxford cup assays was the same as that previously reported. Briefly, inoculums were prepared in 0.9% saline using McFarland standard and spread uniformly on nutrient agar plates. The 320 and 160 µg/mL of all the tested compounds were added individually into the Oxford cups that were placed at equal distances above the agar surfaces. The zone of inhibition for each concentration was measured after a 24–36 h incubation at 37 °C. The same procedure was repeated in triplicate.

For a further experiment, the system named is MRSA. The experiment is described as follows: Oxford cup assay, zone of inhibition. Conditions: Staphylococcus aureus. It is filed as cell-based. Here is the method:
as §3, §4

A further experiment relates to S. aureus. Nature of the experiment: Oxford cup assay, zone of inhibition. Conditions: Staphylococcus aureus. Type of experiment: cell-based. As to the method: as §3, §4
The next experiment has as its system S. haemolyticus. The experiment is described as follows: Oxford cup assay, zone of inhibition. It is filed as cell-based. Particulars: Staphylococcus haemolyticus. As to the method: as §3, §4
In another experiment the test system is S. warneri. Nature of the experiment: Oxford cup assay, zone of inhibition. It is filed as cell-based. Conditions: Staphylococcus warneri. Here is the method: as §3, §4
The subject of a further experiment is S. vitulinus. Nature of the experiment: Oxford cup assay, zone of inhibition. Particulars: Mammaliicoccus vitulinus. It is filed as cell-based, Staphylococcus vitulinus. Here is the method:
as §3, §4

In brackets after ≈: the same amount, converted by molar mass.

As a reminder, the MIC is the least concentration at which growth counts as inhibited. A word on the zone of inhibition: it is the extent of the growth-free halo in a diffusion test. A high value points to a stronger effect on the plate. Take `C=C[C@]1(C)C[C@@H](OC(=O)CSc2nc3ccc(NC(=O)c4ccc[nH]4)cc3[nH]2)[C@]2(C)[C@H](C)CC[C@]3(CCC(=O)[C@H]32)[C@@H](C)[C@@H]1O` [Compound 4k, 14-O-(((1H-Pyrrole-2-carboxamide)-5-aminobenzimidazole-2-yl)thioacetyl) mutilin]: the MIC in experiment [1] was found to be 20 µg/mL (≈ 32.3 µM); in [2], 1.25 µg/mL (≈ 2.02 µM); in [3], 1.25 µg/mL (≈ 2.02 µM); in experiment [4], 1.25 µg/mL (≈ 2.02 µM); in [5], 1.25 µg/mL (≈ 2.02 µM); in experiment [6] it was 5 µg/mL (≈ 8.08 µM). For the same compound, the zone of inhibition at 160 µg/mL turned out to be 18.5 mm in the experiment with E. coli; 26.5 mm in the experiment with MRSA; 26.6 mm in the experiment on S. aureus; 25.5 mm in the experiment on S. haemolyticus; 21.2 mm in the experiment on S. warneri; 24.7 mm with S. vitulinus. For the same compound, the zone of inhibition at 320 µg/mL was found to be 20.1 mm with E. coli; 30.7 mm in the experiment with MRSA; 28.9 mm in the experiment on S. aureus; 29.9 mm in the experiment with S. haemolyticus; 25.5 mm in the experiment on S. warneri; 27 mm in the experiment with S. vitulinus.
In the case of `C=C[C@]1(C)C[C@@H](OC(=O)CSc2nc3ccc(NC(=O)c4ccc(C)cc4)cc3[nH]2)[C@]2(C)[C@H](C)CC[C@]3(CCC(=O)[C@H]32)[C@@H](C)[C@@H]1O` [Compound 4f, 14-O-((4-Methylbenzamide-5-aminobenzimidazole-2-yl)thioacetyl) mutilin], the MIC in experiment [1] was 80 µg/mL (≈ 124 µM); in [2], 40 µg/mL (≈ 62.1 µM); in [3], 40 µg/mL (≈ 62.1 µM); in experiment [4], 40 µg/mL (≈ 62.1 µM); in experiment [5] it was 40 µg/mL (≈ 62.1 µM); in experiment [6], 20 µg/mL (≈ 31.1 µM). Moreover, the zone of inhibition at 160 µg/mL in the experiment with E. coli came to 0 mm; with MRSA, 14.1 mm; with S. aureus, 16.7 mm; in the experiment on S. haemolyticus it was 16.2 mm; in the experiment with S. warneri, 22.9 mm; in the experiment on S. vitulinus, 14 mm. The zone of inhibition at 320 µg/mL in the experiment on E. coli is 8.64 mm; in the experiment with MRSA, 17.3 mm; with S. aureus, 17.8 mm; in the experiment on S. haemolyticus, 20.7 mm; with S. warneri, 22.9 mm; in the experiment with S. vitulinus it was 15.1 mm.
As to `C=C[C@]1(C)C[C@@H](OC(=O)CSc2nc3ccc(NC(=O)c4cccc(OC)c4)cc3[nH]2)[C@]2(C)[C@H](C)CC[C@]3(CCC(=O)[C@H]32)[C@@H](C)[C@@H]1O` [Compound 4h, 14-O-((3-Methoxybenzamide-5-aminobenzimidazole-2-yl)thioacetyl) mutilin], the MIC in [1] stood at 40 µg/mL (≈ 60.6 µM); in experiment [2], 40 µg/mL (≈ 60.6 µM); in experiment [3], 40 µg/mL (≈ 60.6 µM); in experiment [4], 10 µg/mL (≈ 15.2 µM); in experiment [5], 40 µg/mL (≈ 60.6 µM); in [6], 40 µg/mL (≈ 60.6 µM). Besides, the zone of inhibition at 160 µg/mL stood at 15.3 mm in the experiment on E. coli; 16.3 mm in the experiment with MRSA; 15.9 mm in the experiment with S. aureus; 25.4 mm in the experiment with S. haemolyticus; 17.9 mm with S. warneri; 19.8 mm in the experiment with S. vitulinus. For the same compound, the zone of inhibition at 320 µg/mL stood at 18 mm in the experiment on E. coli; 19.7 mm with MRSA; 18.7 mm with S. aureus; 28.4 mm in the experiment on S. haemolyticus; 19.8 mm with S. warneri; 21.7 mm in the experiment with S. vitulinus.
In the case of `C=C[C@]1(C)C[C@@H](OC(=O)CSc2nc3ccc(NC(=O)c4ccccc4OC)cc3[nH]2)[C@]2(C)[C@H](C)CC[C@]3(CCC(=O)[C@H]32)[C@@H](C)[C@@H]1O` [Compound 4g, 14-O-((2-Methoxybenzamide-5-aminobenzimidazole-2-yl)thioacetyl) mutilin], the MIC in experiment [1] came to 80 µg/mL (≈ 121 µM); in experiment [2], 40 µg/mL (≈ 60.6 µM); in [3], 40 µg/mL (≈ 60.6 µM); in experiment [4], 10 µg/mL (≈ 15.2 µM); in [5] it was 40 µg/mL (≈ 60.6 µM); in experiment [6] it was 40 µg/mL (≈ 60.6 µM). The zone of inhibition at 160 µg/mL with E. coli turned out to be 0 mm; with MRSA it was 19.1 mm; in the experiment on S. aureus it was 13.7 mm; in the experiment with S. haemolyticus it was 24.3 mm; with S. warneri, 18.5 mm; with S. vitulinus, 16.2 mm. In addition, the zone of inhibition at 320 µg/mL in the experiment on E. coli turned out to be 9.38 mm; in the experiment on MRSA, 21.5 mm; in the experiment on S. aureus, 18.3 mm; in the experiment on S. haemolyticus it was 25.6 mm; with S. warneri it was 20.1 mm; in the experiment with S. vitulinus it was 18 mm.
For `C=C[C@]1(C)C[C@@H](OC(=O)CSc2nc3ccc(NC(=O)c4ccccc4Cl)cc3[nH]2)[C@]2(C)[C@H](C)CC[C@]3(CCC(=O)[C@H]32)[C@@H](C)[C@@H]1O` [Compound 4a, 14-O-((2-Chlorobenzamide-5-aminobenzimidazole-2-yl)thioacetyl) mutilin], the MIC is 40 µg/mL (≈ 60.2 µM) in experiment [1]; 40 µg/mL (≈ 60.2 µM) in experiment [2]; 40 µg/mL (≈ 60.2 µM) in [3]; 5 µg/mL (≈ 7.53 µM) in experiment [4]; 40 µg/mL (≈ 60.2 µM) in [5]; 40 µg/mL (≈ 60.2 µM) in experiment [6]. Moreover, the zone of inhibition at 160 µg/mL in the experiment with E. coli was determined as 0 mm; in the experiment on MRSA, 15.9 mm; with S. aureus, 9.02 mm; with S. haemolyticus it was 20.4 mm; with S. warneri, 21.6 mm; in the experiment with S. vitulinus, 13.8 mm. Moreover, the zone of inhibition at 320 µg/mL in the experiment on E. coli is 11.3 mm; in the experiment on MRSA, 20.2 mm; in the experiment on S. aureus it was 12.4 mm; in the experiment with S. haemolyticus, 24.9 mm; in the experiment on S. warneri, 22.4 mm; in the experiment with S. vitulinus it was 19.2 mm.
Take `C=C[C@]1(C)C[C@@H](OC(=O)CSc2nc3ccc(NC(=O)c4cc5ccccc5[nH]4)cc3[nH]2)[C@]2(C)[C@H](C)CC[C@]3(CCC(=O)[C@H]32)[C@@H](C)[C@@H]1O` [Compound 4l, 14-O-(((1H-Indole-2-carboxamide)-5-aminobenzimidazole-2-yl)thioacetyl) mutilin]: the minimum inhibitory concentration (MIC) in experiment [1] came to 20 µg/mL (≈ 29.9 µM); in experiment [2], 10 µg/mL (≈ 15 µM); in [3], 10 µg/mL (≈ 15 µM); in experiment [4], 10 µg/mL (≈ 15 µM); in experiment [5], 5 µg/mL (≈ 7.48 µM); in [6] it was 2.5 µg/mL (≈ 3.74 µM). The zone of inhibition at 160 µg/mL in the experiment on E. coli stood at 17.4 mm; with MRSA, 19.8 mm; in the experiment with S. aureus it was 20.9 mm; in the experiment with S. haemolyticus it was 20.8 mm; in the experiment with S. warneri, 25.4 mm; in the experiment with S. vitulinus, 22.1 mm. Besides, the zone of inhibition at 320 µg/mL with E. coli is 20.5 mm; in the experiment on MRSA it was 21.6 mm; in the experiment on S. aureus, 24.7 mm; in the experiment with S. haemolyticus it was 25.1 mm; in the experiment on S. warneri, 29.6 mm; with S. vitulinus, 26.5 mm.
